Active and inactive are the calls of the source. No rule for the calls is given here.

Results on 103 compounds are retold here after PubChem BioAssay AID1549 (Sanford-Burnham Center for Chemical Genomics, 2009).

In the test the target is Influenza A virus M2 proton channel (A/TW/4845/1999 H1N1). The experiment in a line: M2 proton channel binding, NMR based, influenza A virus H1N1 strain (AID 1549). To be noted: NMR binding screen, M2 protein.
As usually defined, the Kd is the free concentration of one partner at which half of the binding sites on the other are occupied at equilibrium, for simple one-to-one binding. On to `O=c1ccc2cc(O[C@@H]3O[C@H](CO)[C@@H](O)[C@H](O)[C@H]3O)c(O)cc2o1`, for which the Kd was > 4 mM (inactive). Take `O=C(O)Cn1nc(-c2ccccc2)c2ccccc2c1=O`: the Kd was > 4 mM (inactive). Take `OCc1ccc(-c2ccccn2)s1`: the Kd is > 4 mM (inactive). Under `Cc1ccc(C(=O)CS(C)(=O)=O)cc1` stands > 4 mM (inactive); under `O=C(O)CCNc1n[nH]c(=O)[nH]c1=O`, > 4 mM (inactive); under `c1cncc(-c2nnc(-c3cccnc3)nn2)c1`, > 4 mM (inactive).

In the case of `OCC1COc2ccccc2O1` (stereo not drawn), the Kd is > 4 mM (inactive). Take `O=C(c1ccccc1)N1CCOCC1`: the Kd was > 4 mM (inactive). With `CC(=O)Nc1ccc(N(C)C(C)=O)cc1`, the Kd was > 4 mM (inactive). Under `c1ccc(CCc2nc(-c3ccncc3)no2)cc1` stands > 4 mM (inactive); under `O=C1CNC(=O)/C1=C/c1ccc(O)cc1`, > 4 mM (inactive). Regarding `O=C(c1ccccc1)c1ccccc1C(=O)N1CCOCC1`, the Kd is > 4 mM (inactive). `c1ccc(NCc2nc(-c3ccccc3)no2)cc1`: the Kd is > 4 mM (inactive). With `CC(C)c1c(O)ccc2c1CCC1[C@@](C)(CO)CCC[C@]21C` (stereo partly drawn), the Kd is > 4 mM (inactive). Turning to `N#Cc1ccccc1CSc1ccccn1`, the Kd was > 4 mM (inactive). In the case of `O=C1NC(=S)N/C1=C\c1cccc([N+](=O)[O-])c1`, the Kd is > 4 mM (inactive). For the compound `CN1CCC(N2CCN(C)CC2)CC1`, the Kd is > 4 mM (inactive).

`O=C1c2ccc(F)cc2C(=O)N1CO`: the Kd was > 4 mM (inactive).

With `O=C(Nc1nccs1)c1ccc(=O)[nH]n1`, the Kd was > 4 mM (inactive). `C[C@@H]1OC(O[C@H]2[C@H](OC(=O)[C@]34CCC(C)(C)CC3C3=CCC5[C@@]6(C)CC[C@H](OC7O[C@@H](C)[C@H](O[C@@H]8OC[C@@H](O)[C@H](O)[C@H]8O)[C@@H](O)[C@H]7O)C(C)(C)C6CC[C@@]5(C)[C@]3(C)CC4O)OC[C@H](O)[C@H]2O)[C@H](O)[C@H](O)[C@H]1O[C@@H]1O[C@H](CO)[C@@H](O)[C@H](O)[C@H]1O` (stereo partly drawn): the Kd is > 4 mM (inactive). Consider `O=C(O)CCc1nc2ccccc2[nH]c1=O`, for which the Kd is > 4 mM (inactive). As to `O=C(NC1=NCCS1)c1ccc2snnc2c1`, the Kd was > 4 mM (inactive).

With `Cc1ccc(C(=O)NC2=NCCS2)o1`, the Kd is > 4 mM (inactive). Take `CCn1c(=O)cc(N2CCC3(CC2)OCCO3)[nH]c1=O`: the Kd was > 4 mM (inactive). On to `O=S1(=O)C=CC(Nc2ccccc2)C1` (stereo not drawn), for which the Kd is > 4 mM (inactive). Under `Cc1cc(C(=O)Nc2sc(C)c(C)c2C#N)c(C)o1` stands > 4 mM (inactive); under `Cc1ccc(-n2nnnc2SCC(N)=O)c(C)c1`, > 4 mM (inactive). `CN(C)c1ccc(C2CC(=O)CC(=O)C2)cc1`: the Kd was > 4 mM (inactive). On to `Clc1ccc2c(N3CCNCC3)ccnc2c1`, for which the Kd is > 4 mM (inactive). As for `O=c1n(-c2ccccc2)c(=O)n2n1CCCC2`, the Kd is > 4 mM (inactive). Turning to `O=C(NCc1ccco1)c1nc2ncccn2n1`, the Kd is > 4 mM (inactive). With `Cc1nn(-c2ccccc2)nc1C(=O)O` the figure was > 4 mM (inactive); with `C[C@]12CCC(=O)C=C1CCC1C2C(=O)C[C@@]2(C)C1CC[C@]2(O)C(=O)CO` (stereo partly drawn), > 4 mM (inactive); with `O=C1NC(=O)C(=Cc2cccs2)C(=O)N1`, > 4 mM (inactive). As for `Cc1nn(-c2ccccc2)nc1C(N)=O`, the Kd was > 4 mM (inactive). Take `OCC1COc2ccccc2C1` (stereo not drawn): the Kd is > 4 mM (inactive). Turning to `CC(=O)Nc1cccc(-c2nnc(-c3ccccc3)o2)c1`, the Kd is > 4 mM (inactive). Turning to `CCC1(CC)C(=O)N=C(N)NC1=O`, the Kd was > 4 mM (inactive). `COc1ccccc1C(=O)Nc1ccccn1`: the Kd was > 4 mM (inactive). On to `Cn1c(O)c(C2=NC(=S)NC2=O)c2ccccc21`, for which the Kd is > 4 mM (inactive). `O=C(O)c1ccc2c(c1)OCCCO2`: the Kd is > 4 mM (inactive). `O=C(Nc1ccon1)c1cc2c(s1)CCCC2`: the Kd is > 4 mM (inactive). On to `CS(=O)(=O)N1CCN(c2ncccn2)CC1`, for which the Kd is > 4 mM (inactive).

On to `Cc1cc(C)c(-c2cc(C(F)(F)F)no2)c(=O)[nH]1`, for which the Kd was > 4 mM (inactive). For `Nc1nc(-c2ccc(O)cc2)cs1`, the Kd was > 4 mM (inactive). Regarding `CC(C)=CC(=O)Nc1ccc(S(N)(=O)=O)cc1`, the Kd was > 4 mM (inactive). `COC(=O)c1ccccc1NC(=O)c1cc[n+]([O-])cc1`: the Kd is > 4 mM (inactive).

Take `O=C(NCc1ccco1)c1cccc(F)c1`: the Kd is > 4 mM (inactive).

As for `O=C(NN1C(=O)C2C3C=CC(C3)C2C1=O)C1CC=CCC1` (stereo not drawn), the Kd is > 4 mM (inactive). Take `O=C(Nc1ccon1)c1ccc2c(c1)OCO2`: the Kd was > 4 mM (inactive). Under `C/C=C/C(=O)Nc1ccc(NC(C)=O)cc1` stands > 4 mM (inactive); under `OCC1CN(Cc2ccccc2)CCO1` (stereo not drawn), > 4 mM (inactive).

In the case of `CN1C(=O)C2CC=C(Cl)CC2C1=O` (stereo not drawn), the Kd is > 4 mM (inactive). Turning to `Cc1ccc(/C=N/NC(N)=O)o1`, the Kd was > 4 mM (inactive). With `Cc1cc(C(=O)N2CCCCCC2)cs1`, the Kd was > 4 mM (inactive). As for `Cc1cc(O)c(NC(=O)c2ccco2)cc1C`, the Kd was > 4 mM (inactive). As to `CC(C)(C)c1cc(CN)c(C(=O)O)o1`, the Kd was > 4 mM (inactive).

Consider `Cc1noc(C)c1C(=O)NCc1ccco1`, for which the Kd is > 4 mM (inactive). Regarding `Cc1cc(=O)n2[nH]c(C)cc2n1`, the Kd was > 4 mM (inactive). `CC1=C(C(=O)Nc2ccccc2)SCCO1`: the Kd is > 4 mM (inactive). As to `O=C(c1ccc(F)cc1)C1CCNCC1`, the Kd is > 4 mM (inactive). With `CS(=O)(=O)N1CCN(c2ccccc2F)CC1` the figure was > 4 mM (inactive).

As to `O=C1NC(=S)N/C1=C\c1ccccc1F`, the Kd was > 4 mM (inactive). Regarding `O=C(NCO)c1ccc([N+](=O)[O-])cc1`, the Kd is > 4 mM (inactive). Take `NS(=O)(=O)c1ccc(N=Cc2cccs2)cc1`: the Kd was > 4 mM (inactive). For the compound `NCc1ccc(S(N)(=O)=O)cc1`, the Kd was > 4 mM (inactive). As for `c1ccc(-c2nnc(CNCc3ccco3)o2)cc1`, the Kd was > 4 mM (inactive). With `Cc1n[nH]c(C)c1-c1ccccc1C(=O)O`, the Kd was > 4 mM (inactive).

Regarding `NC(=O)c1cc(N)ccc1N1CCCCC1`, the Kd is > 4 mM (inactive). Regarding `C(=N\n1cnnc1)/c1cccs1`, the Kd was > 4 mM (inactive). With `COc1ccc(-c2coc3c(OC)c(OC)cc(O)c3c2=O)cc1` the figure was > 4 mM (inactive); with `Cc1ccc(-c2nn(C)c(=O)c3ccccc23)cc1CO`, > 4 mM (inactive); with `Cc1ccc2cc(CO)ccc2n1`, > 4 mM (inactive). Regarding `Cc1cc2c(N)cccc2nn1`, the Kd is > 4 mM (inactive). Consider `NC(=O)Cn1cnc2c(cnn2-c2ccccc2)c1=O`, for which the Kd was > 4 mM (inactive). With `CC[C@@]1(O)C(=O)OCc2c1cc1n(c2=O)Cc2cc3ccccc3nc2-1` the figure was > 4 mM (inactive); with `Cc1nc(N2CCOCC2)[nH]c(=O)c1C`, > 4 mM (inactive). Take `Cn1nc(C(=O)N2CCCC2)c2ccccc2c1=O`: the Kd was > 4 mM (inactive).

On to `COc1cc2c(c(OC)c1OC)-c1ccc(OC)c(=O)cc1[C@@H](NC(C)=O)CC2`, for which the Kd is > 4 mM (inactive). Under `COC1=CC(=O)C[C@@H](C)[C@]12Oc1c(Cl)c(OC)cc(OC)c1C2=O` stands > 4 mM (inactive); under `O=C1Nc2ccccc2C1(O)Cc1ccncc1` (stereo not drawn), > 4 mM (inactive). Turning to `CC(NC(=O)c1cccnc1)c1ccc2c(c1)OCO2` (stereo not drawn), the Kd was > 4 mM (inactive). Consider `O=c1[nH]cc(NCc2ccco2)c(=O)[nH]1`, for which the Kd is > 4 mM (inactive). On to `CNC(=O)c1cc2cccc(OC)c2oc1=O`, for which the Kd is > 4 mM (inactive). As for `CNC(=O)c1cc(S(=O)(=O)N(C)C)ccc1Cl`, the Kd was > 4 mM (inactive).

For the compound `CC(=O)O[C@@H]1CC2C(C)(C)[C@H](O)CC[C@]2(C)C2CC[C@@]3(C)[C@H](c4ccoc4)OC(=O)C4OC43[C@@]21C` (stereo partly drawn), the Kd was > 4 mM (inactive). Under `C=CC(=O)N1CC2CC(C1)c1cccc(=O)n1C2` (stereo not drawn) stands > 4 mM (inactive); under `COc1cccc(NC(=O)c2ocnc2C)c1`, > 4 mM (inactive). `c1nnc2c3c4c(sc3ncn12)CCCC4`: the Kd was > 4 mM (inactive). Turning to `CC(=O)Nc1ccccc1-c1ccccc1NC(C)=O`, the Kd is > 4 mM (inactive). As for `COC(=O)CSc1ncnc2c(C)csc12`, the Kd was > 4 mM (inactive). On to `CCC(=O)Oc1ccc(N2C(=O)CCC2=O)cc1`, for which the Kd is > 4 mM (inactive). With `O=C(Nc1ccccc1N1CCCC1)c1cccnc1`, the Kd is > 4 mM (inactive). Take `CN1CC(=O)Nc2ccc([N+](=O)[O-])cc2C1=O`: the Kd is > 4 mM (inactive).

Turning to `O=C(Nc1ccon1)c1csc2c1CCCC2`, the Kd is > 4 mM (inactive). In the case of `O=C(Nc1nnc(-c2ccccc2Cl)o1)c1ccco1`, the Kd was > 4 mM (inactive).

On to `COc1cc2nc[nH]c(=O)c2cc1OC`, for which the Kd was > 4 mM (inactive). As to `Cc1cc2c(=O)n(C)c(SCC(N)=O)nc2s1`, the Kd is > 4 mM (inactive). Under `COC(=O)C1[C@H]2C[C@H]3c4[nH]c5ccccc5c4CCN3C[C@@H]2CC[C@@H]1O` (stereo partly drawn) stands > 4 mM (inactive); under `COc1ccc(-c2cc(=O)c3cc(OC)ccc3o2)cc1`, > 4 mM (inactive); under `NC(=O)CSc1nnc(-c2cccnc2)o1`, > 4 mM (inactive). Take `S=c1[nH]cnc2sccc12`: the Kd is > 4 mM (inactive). For `CN(C)C1CCS(=O)(=O)C1` (stereo not drawn), the Kd was > 4 mM (inactive).
